The values below come from patent US10072003B2, “Tetrahydronaphthyridine derivatives as mGluR2-negative allosteric modulators, compositions, and their use” (Merck Sharp & Dohme Corp., priority 2014, dated 2018).

Chain of recombinant human mGluR2 (Q14416 19-872): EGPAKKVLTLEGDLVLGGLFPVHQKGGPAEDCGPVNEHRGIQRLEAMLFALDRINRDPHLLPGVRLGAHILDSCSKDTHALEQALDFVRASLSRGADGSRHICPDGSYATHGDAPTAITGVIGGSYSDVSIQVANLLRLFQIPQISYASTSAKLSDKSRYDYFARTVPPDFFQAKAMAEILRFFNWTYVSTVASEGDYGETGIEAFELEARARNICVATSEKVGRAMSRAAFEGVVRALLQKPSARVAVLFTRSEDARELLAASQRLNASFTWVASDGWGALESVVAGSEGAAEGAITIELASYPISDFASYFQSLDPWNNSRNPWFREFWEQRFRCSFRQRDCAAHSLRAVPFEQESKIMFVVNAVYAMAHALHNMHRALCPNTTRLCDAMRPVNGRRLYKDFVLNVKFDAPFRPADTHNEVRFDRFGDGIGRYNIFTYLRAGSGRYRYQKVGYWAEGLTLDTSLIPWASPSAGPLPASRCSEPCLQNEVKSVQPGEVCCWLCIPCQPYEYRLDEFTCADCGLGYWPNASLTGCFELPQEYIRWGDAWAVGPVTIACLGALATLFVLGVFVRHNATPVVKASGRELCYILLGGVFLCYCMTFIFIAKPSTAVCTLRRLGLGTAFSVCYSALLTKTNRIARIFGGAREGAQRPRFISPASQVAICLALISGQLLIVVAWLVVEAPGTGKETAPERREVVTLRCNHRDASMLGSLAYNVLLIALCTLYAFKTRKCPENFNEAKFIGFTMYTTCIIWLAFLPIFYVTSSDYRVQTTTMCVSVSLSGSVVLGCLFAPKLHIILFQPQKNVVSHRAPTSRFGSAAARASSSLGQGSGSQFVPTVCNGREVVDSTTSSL

This test has as its target recombinant human mGluR2 (Homo sapiens (Human), UniProt Q14416). Description: FLIPR Ca2+ mobilization antagonist assay in CHO dhfr- cells expressing human mGluR2 and Gα16. Type of test: cell-based. To be noted: antagonist response after addition of 2,500 nM glutamate, Fluo-4 AM, FLIPR384. As for the experimental part:
Antagonist constants are determined as follows. The compounds of the invention were tested in a fluorescence laser imaging plate reader based assay. This assay is a common functional assay to monitor Ca2+ mobilization in whole cells expressing recombinant receptor coupled with a promiscuous G-protein. CHO dhfr-cells stably expressing recombinant human mGluR2 and Gα16 loaded with Fluo-4 AM (Invitrogen, Carlsbad Calif.) were treated with various concentrations of antagonists of compounds and the Ca2+ response was monitored on a FLIPR384 (Molecular Devices, Sunnydale Calif.) for agonist activity. Then 2,500 nM glutamate was added and the antagonist response was monitored. The maximum calcium response at each concentration of compound for agonist or antagonist were plotted as dose responses and the curves were fitted with a four parameter logistic equation giving IC50 and Hill coefficient using the iterative non linear curve fitting software ADA (Merck & Co). Data in the following table represent activities in the antagonist assay.
Background: A change in cytosolic calcium serves as a functional read-out for many receptors and channels.
One may read the IC50 as the point on the concentration scale where inhibition reaches its midpoint. Take `CC1(C)CC(CN2CCc3c(-c4ccc(F)cc4F)cc(C(N)=O)nc3C2(C)C)CCO1` (racemic) [Example 1-23A, (R) and (S)-4-(2,4-difluorophenyl)-7-((2,2-dimethyltetrahydro-2H-pyran-4-yl)methyl)-8,8-dimethyl-5,6,7,8-tetrahydro-1,7-naphthyridine-2-carboxamide]: the IC50 was 14.7 nM.

Turning to `CC1(C)CC(CN2CCc3c(-c4ccc(F)cc4F)cc(C(N)=O)nc3C2(C)C)CCO1` (racemic) [Example 1-23B, (R) and (S)-4-(2,4-difluorophenyl)-7-((2,2-dimethyltetrahydro-2H-pyran-4-yl)methyl)-8,8-dimethyl-5,6,7,8-tetrahydro-1,7-naphthyridine-2-carboxamide], the half-inhibitory concentration (IC50) was determined as 28.5 nM.

Take `NC(=O)c1cc(-c2ccc(F)cc2)c2c(n1)CN(C(c1cccnc1)C(F)(F)F)CC2` (racemic) [Example 3-1A, (S) and (R)-4-(4-fluorophenyl)-7-(2,2,2-trifluoro-1-(pyridin-3-yl)ethyl)-5,6,7,8-tetrahydro-1,7-naphthyridine-2-carboxamide]: the IC50 stood at 21.2 nM.

In the case of `NC(=O)c1cc(-c2ccc(F)cc2)c2c(n1)CN(C(c1cccnc1)C(F)(F)F)CC2` (racemic) [Example 3-1B, (S) and (R)-4-(4-fluorophenyl)-7-(2,2,2-trifluoro-1-(pyridin-3-yl)ethyl)-5,6,7,8-tetrahydro-1,7-naphthyridine-2-carboxamide], the IC50 came to 22.3 nM.

With `COc1cc(C(N2CCc3c(-c4cnn(C)c4)cc(C(N)=O)nc3C2)C(F)(F)F)ccn1` (racemic) [Example 3-2A, (S) and (R)-4-(1-methyl-1H-pyrazol-4-yl)-7-(2,2,2-trifluoro-1-(2-methoxypyridin-4-yl)ethyl)-5,6,7,8-tetrahydro-1,7-naphthyridine-2-carboxamide], the IC50 is 9.6 nM.

For `COc1cc(C(N2CCc3c(-c4cnn(C)c4)cc(C(N)=O)nc3C2)C(F)(F)F)ccn1` (racemic) [Example 3-2B, (S) and (R)-4-(1-methyl-1H-pyrazol-4-yl)-7-(2,2,2-trifluoro-1-(2-methoxypyridin-4-yl)ethyl)-5,6,7,8-tetrahydro-1,7-naphthyridine-2-carboxamide], the IC50 amounted to 11.4 nM.

In the case of `COc1cc(C(N2CCc3c(C4=CCC(C)CC4)cc(C(N)=O)nc3C2)C(F)(F)F)ccn1` (racemic) [Example 4-3A, 4-((S) and (R)-4-methylcyclohex-1-en-1-yl)-7-((S) and (R)-2,2,2-trifluoro-1-(2-methoxypyridin-4-yl)ethyl)-5,6,7,8-tetrahydro-1,7-naphthyridine-2-carboxamide], the 50% inhibitory concentration (IC50) is 51.2 nM.

Regarding `COc1cc(C(N2CCc3c(C4=CCC(C)CC4)cc(C(N)=O)nc3C2)C(F)(F)F)ccn1` (racemic) [Example 4-3B, 4-((S) and (R)-4-methylcyclohex-1-en-1-yl)-7-((S) and (R)-2,2,2-trifluoro-1-(2-methoxypyridin-4-yl)ethyl)-5,6,7,8-tetrahydro-1,7-naphthyridine-2-carboxamide], the half-maximal inhibitory concentration (IC50) turned out to be 86.6 nM.

For the compound `NC(=O)c1cc(-c2ccc(F)cc2F)c2c(n1)CN(CC(O)c1ccccc1)CC2` (racemic) [Example 8-1A, (S) and (R)-4-(2,4-difluorophenyl)-7-(2-hydroxy-2-phenylethyl)-5,6,7,8-tetrahydro-1,7-naphthyridine-2-carboxamide], the IC50 is 18.5 nM.

For `NC(=O)c1cc(-c2ccc(F)cc2F)c2c(n1)CN(CC(O)c1ccccc1)CC2` (racemic) [Example 8-1B, (S) and (R)-4-(2,4-difluorophenyl)-7-(2-hydroxy-2-phenylethyl)-5,6,7,8-tetrahydro-1,7-naphthyridine-2-carboxamide], the concentration for half-maximal inhibition (IC50) worked out at 12.7 nM.

In the case of `NC(=O)c1cc(-c2ccc(F)cc2F)c2c(n1)CN(C(CO)c1ccccc1)CC2` (racemic) [Example 8-2A, (S) and (R)-4-(2,4-difluorophenyl)-7-(2-hydroxy-1-phenylethyl)-5,6,7,8-tetrahydro-1,7-naphthyridine-2-carboxamide], the IC50 turned out to be 9.9 nM.
